The source made the active and inactive calls. How the calls were made is not given here.
Tested on: CCRIS mutagenicity, Ames/micronucleus/aberration tests
Assay: CCRIS mutagenicity studies
[1] = Test System: AMES SALMONELLA TYPHIMURIUM, Strain/Indicator: TA98, Metabolic Activation: NONE, Method: STANDARD PLATE
[2] = Test System: AMES SALMONELLA TYPHIMURIUM, Strain/Indicator: TA100, Metabolic Activation: NONE, Method: STANDARD PLATE
[3] = Test System: AMES SALMONELLA TYPHIMURIUM, Strain/Indicator: TA100, Metabolic Activation: RAT, LIVER, S-9, AROCLOR 1254, Method: STANDARD PLATE
[4] = Test System: AMES SALMONELLA TYPHIMURIUM, Strain/Indicator: TA1535, Metabolic Activation: NONE, Method: STANDARD PLATE
[5] = Test System: AMES SALMONELLA TYPHIMURIUM, Strain/Indicator: TA1535, Metabolic Activation: RAT, LIVER, S-9, AROCLOR 1254, Method: STANDARD PLATE
[6] = Test System: AMES SALMONELLA TYPHIMURIUM, Strain/Indicator: TA1537, Metabolic Activation: NONE, Method: STANDARD PLATE
[7] = Test System: AMES SALMONELLA TYPHIMURIUM, Strain/Indicator: TA1538, Metabolic Activation: NONE, Method: STANDARD PLATE

c1cnccn1
mutagenic call (Test System: AMES SALMONELLA TYPHIMURIUM, Strain/Indicator: TA98, Metabolic Activation: HAMSTER, LIVER, S-9, AROCLOR 1254, Method: STANDARD PLATE): inactive; negative
mutagenic call (Test System: AMES SALMONELLA TYPHIMURIUM, Strain/Indicator: TA98, Metabolic Activation: NONE, Method: PREINCUBATION): inactive; negative
mutagenic call [1]: inactive; negative
mutagenic call (Test System: AMES SALMONELLA TYPHIMURIUM, Strain/Indicator: TA98, Metabolic Activation: RAT, LIVER, S-9, AROCLOR 1254, Method: PREINCUBATION): inactive; negative
mutagenic call (Test System: AMES SALMONELLA TYPHIMURIUM, Strain/Indicator: TA98, Metabolic Activation: RAT, LIVER, S-9, AROCLOR 1254, Method: STANDARD PLATE): inactive; negative
mutagenic call (Test System: AMES SALMONELLA TYPHIMURIUM, Strain/Indicator: TA98, Metabolic Activation: RAT, LIVER, S-9, PCB, Method: PREINCUBATION): inactive; negative
mutagenic call (Test System: AMES SALMONELLA TYPHIMURIUM, Strain/Indicator: TA100, Metabolic Activation: HAMSTER, LIVER, S-9, AROCLOR 1254, Method: STANDARD PLATE): inactive; negative
mutagenic call (Test System: AMES SALMONELLA TYPHIMURIUM, Strain/Indicator: TA100, Metabolic Activation: NONE, Method: PREINCUBATION): inactive; negative
mutagenic call [2]: inactive; negative
mutagenic call (Test System: AMES SALMONELLA TYPHIMURIUM, Strain/Indicator: TA100, Metabolic Activation: RAT, LIVER, S-9, AROCLOR 1254, Method: PREINCUBATION): inactive; negative
mutagenic call [3]: inactive; negative
mutagenic call (Test System: AMES SALMONELLA TYPHIMURIUM, Strain/Indicator: TA100, Metabolic Activation: RAT, LIVER, S-9, PCB, Method: PREINCUBATION): inactive; negative
mutagenic call (Test System: AMES SALMONELLA TYPHIMURIUM, Strain/Indicator: TA102, Metabolic Activation: NONE, Method: PREINCUBATION): inactive; negative
mutagenic call (Test System: AMES SALMONELLA TYPHIMURIUM, Strain/Indicator: TA102, Metabolic Activation: RAT, LIVER, S-9, AROCLOR 1254, Method: PREINCUBATION): inactive; negative
mutagenic call (Test System: AMES SALMONELLA TYPHIMURIUM, Strain/Indicator: TA1535, Metabolic Activation: HAMSTER, LIVER, S-9, AROCLOR 1254, Method: STANDARD PLATE): inactive; negative
mutagenic call [4]: inactive; negative
mutagenic call [5]: inactive; negative
mutagenic call (Test System: AMES SALMONELLA TYPHIMURIUM, Strain/Indicator: TA1537, Metabolic Activation: HAMSTER, LIVER, S-9, AROCLOR 1254, Method: STANDARD PLATE): inactive; negative
mutagenic call [6]: inactive; negative
mutagenic call (Test System: AMES SALMONELLA TYPHIMURIUM, Strain/Indicator: TA1537, Metabolic Activation: RAT, LIVER, S-9, AROCLOR 1254, Method: STANDARD PLATE): inactive; negative
mutagenic call (Test System: AMES SALMONELLA TYPHIMURIUM, Strain/Indicator: TA1538, Metabolic Activation: HAMSTER, LIVER, S-9, AROCLOR 1254, Method: STANDARD PLATE): inactive; negative
mutagenic call [7]: inactive; negative
mutagenic call (Test System: AMES SALMONELLA TYPHIMURIUM, Strain/Indicator: TA1538, Metabolic Activation: RAT, LIVER, S-9, AROCLOR 1254, Method: STANDARD PLATE): inactive; negative
mutagenic call (Test System: MOUSE LYMPHOMA, Strain/Indicator: L5178Y (TK+/TK-), Metabolic Activation: NONE, Method: SUSPENSION/PLATE): inactive; negative. reevaluation of results: negative
mutagenic call (Test System: MOUSE LYMPHOMA, Strain/Indicator: L5178Y (TK+/TK-), Metabolic Activation: RAT, LIVER, S-9, AROCLOR 1254, Method: SUSPENSION/PLATE): inactive; negative. reevaluation of results: negative

CC1(C)C2CC3OC3(C)C1C2 (stereo not given)
mutagenic call [2]: inactive; negative
mutagenic call [3]: inactive; negative
mutagenic call [4]: inactive; negative
mutagenic call [5]: inactive; negative
mutagenic call (Test System: UDS RAT HEPATOCYTES, Strain/Indicator: THY INCORP, Metabolic Activation: NONE): inactive; negative

c1ccc(COc2cccc3cccnc23)cc1
mutagenic call (Test System: AMES SALMONELLA TYPHIMURIUM, Strain/Indicator: TA100, Metabolic Activation: S-9, Method: PREINCUBATION): inactive; negative

Oc1ccc2cc3ccc4cccc5ccc(c2c1)c3c45
mutagenic call (Test System: AMES SALMONELLA TYPHIMURIUM, Strain/Indicator: TA98, Metabolic Activation: RAT, LIVER, 3-METHYLCHOLANTHRENE, Method: LIQUID SUSPENSION): active; positive
mutagenic call (Test System: AMES SALMONELLA TYPHIMURIUM, Strain/Indicator: TA1538, Metabolic Activation: RAT, LIVER, 3-METHYLCHOLANTHRENE, Method: LIQUID SUSPENSION): active; positive
mutagenic call (Test System: CHINESE HAMSTER V-79, Strain/Indicator: V-79/OUABAIN, Metabolic Activation: NONE, Method: STANDARD PLATE): active; positive

c1ccc2nc3c4ccccc4c4ccccc4c3cc2c1
mutagenic call (Test System: AMES SALMONELLA TYPHIMURIUM, Strain/Indicator: TA100, Metabolic Activation: RAT, LIVER, S-9, PHENOBARBITAL AND 5,6-BENZOFLAVONE, Method: STANDARD PLATE): active; positive

Nc1ccc2[nH]c3ccccc3c2c1[N+](=O)[O-]
mutagenic call [1]: active; positive
mutagenic call (Test System: AMES SALMONELLA TYPHIMURIUM, Strain/Indicator: TA98, Metabolic Activation: RAT, LIVER, S-9, PHENOBARBITAL, Method: STANDARD PLATE): active; positive
mutagenic call [2]: active; positive
mutagenic call (Test System: AMES SALMONELLA TYPHIMURIUM, Strain/Indicator: TA100, Metabolic Activation: RAT, LIVER, S-9, PHENOBARBITAL, Method: STANDARD PLATE): inactive; negative
mutagenic call [6]: active; positive
mutagenic call (Test System: AMES SALMONELLA TYPHIMURIUM, Strain/Indicator: TA1537, Metabolic Activation: RAT, LIVER, S-9, PHENOBARBITAL, Method: STANDARD PLATE): active; positive
mutagenic call [7]: active; positive
mutagenic call (Test System: AMES SALMONELLA TYPHIMURIUM, Strain/Indicator: TA1538, Metabolic Activation: RAT, LIVER, S-9, PHENOBARBITAL, Method: STANDARD PLATE): active; positive
mutagenic call (Test System: AMES SALMONELLA TYPHIMURIUM, Strain/Indicator: TA1977, Metabolic Activation: NONE, Method: STANDARD PLATE): active; positive
mutagenic call (Test System: AMES SALMONELLA TYPHIMURIUM, Strain/Indicator: TA1977, Metabolic Activation: RAT, LIVER, S-9, PHENOBARBITAL, Method: STANDARD PLATE): active; positive

Source: PubChem BioAssay AID1259407 (Chemical Carcinogenesis Research Information System (CCRIS), 2018)
